Experimental data as given in US12162867B2, “Inhibitors of RNA helicase DHX9 and uses thereof” (ACCENT THERAPEUTICS, INC., priority 2022, dated 2024).
Read-outs that look alike come from different tables or passages of the source.

Key:
Type in all cases: cell-based
LS411N cells = experiment: DHX9 cellular proliferation assay (CellTiter-Glo), LS411N (CRC-MSI); conditions: Homo sapiens, LS-411N, LS411N, performed at Pharmaron, read-out: LS411N (CRC-MSI-H) Antiproliferative IC50
NCI-H747 cells = experiment: DHX9 cellular proliferation assay (CellTiter-Glo), NCI-H747 (CRC-MSS); conditions: Homo sapiens, performed at Pharmaron, read-out: H747 (CRC-MSS) Antiproliferative IC50
[1] = tested on: circBRIP1 in HCT116 cells; experiment: DHX9 circBRIP1 cellular target engagement TaqMan Multiplex assay (qPCR); conditions: Homo sapiens, read-out: DHX9 Cellular Target Engagement EC50
[2] = HCT-116, circBRIP1, HCT116 cells, * Taqman assay was used
[3] = HCT-116, 72 h, circBRIP1, HCT116 cells, 72 hours, Taqman assay (marked *)

| IC50 (NCI-H747 cells; NCI-H747, NCI-H747) [nM] | EC50 [1, 2] [nM] | IC50 (NCI-H747 cells; NCI-H747, NCI-H747, CRC-MSS) [nM] | EC50 [1, 3] [nM] | EC50 ([1]; HCT-116, circBRIP1, HCT116 cells, cell carries no mark, SyBr or Taqman not indicated) [nM] | SMILES | IC50 (LS411N cells) [nM] | IC50 (LS411N cells; CRC-MSI-H) [nM] |
| --- | --- | --- | --- | --- | --- | --- | --- |
| – | – | 4710 | 56.6 | – | CC(C)(C)Oc1cnc(-c2csc(C(=O)Nc3cc(Cl)cc(NS(C)(=O)=O)c3)c2)nc1 [Example 379] | – | 83 |
| – | – | > 10000 | 37.4 | – | Cc1sc(C(=O)Nc2cc(Cl)cc(NS(C)(=O)=O)c2)cc1-c1ccc(C#N)cn1 [Example 377] | – | 140 |
| > 10000 | 29.3 | – | – | – | Cn1cc(C(=O)Nc2cc(Cl)cc(NS(C)(=O)=O)c2)cc1-c1ncc(N2CCC(F)(F)C2)cn1 [Example 526] | 133 | – |
| 4520 | 54.5 | – | – | – | Cn1cc(C(=O)Nc2cc(Cl)cc(NS(C)(=O)=O)c2)cc1-c1ncc(OC(C)(C)C)cn1 [Example 556] | 74.9 | – |
| > 10000 | 148 | – | – | – | CS(=O)(=O)Nc1cc(Cl)cc(NC(=O)c2c[nH]c(-c3ncc(F)cc3F)c2)c1 [Example 560] | 145 | – |
| – | – | > 10000 | 86.8 | – | CS(=O)(=O)Nc1cc(Cl)cc(NC(=O)c2cc(-c3ncc(C(F)(F)F)cn3)cs2)c1 [Example 369] | – | 227 |
| 3880 | 51.7 | – | – | – | Cc1sc(C(=O)Nc2cc(Cl)cc(NS(C)(=O)=O)c2)cc1-c1ncc(OCC(F)(F)F)cn1 [Example 706] | 243 | – |
| 1990 | 31.1 | – | – | – | CS(=O)(=O)Nc1cc(Cl)cc(NC(=O)c2cc(-c3ncc(N4CC(F)(F)C4)cn3)cs2)c1 [Example 486] | 112 | – |
| > 10000 | 71.6 | – | – | – | Cn1cc(C(=O)Nc2cc(Cl)cc(NS(C)(=O)=O)c2)cc1-c1ncc(OC(F)F)cn1 [Example 553] | 211 | – |
| 6460 | 63.4 | – | – | – | CS(=O)(=O)Nc1cc(Cl)cc(NC(=O)c2cc(-c3ncc(N4CC(C(F)(F)F)C4)cn3)n(CC(F)F)c2)c1 [Example 508] | 108 | – |
| 7910 | – | – | – | 74.1 | Cn1cc(C(=O)Nc2cc(Cl)cc(NS(C)(=O)=O)c2)cc1-c1ncc(F)cc1F [Example 540, N-(3-chloro-5-methanesulfonamidophenyl)-5-(3,5-difluoropyridin-2-yl)-1-methyl-1H-pyrrole-3-carboxamide] | 175 | – |
| 7410 | 16.9 | – | – | – | Cc1sc(C(=O)Nc2cc(Cl)cc(NS(C)(=O)=O)c2)cc1-c1ncc(N2CCC(F)(F)C2)cn1 [Example 479] | 37.4 | – |
| 4570 | 26.1 | – | – | – | Cc1sc(C(=O)Nc2cc(Cl)cc(NS(C)(=O)=O)c2)cc1-c1ncc(F)cc1OCc1cnco1 [Example 732] | 34.1 | – |
| > 10000 | 300 | – | – | – | Cc1sc(C(=O)Nc2cc(Cl)cc(NS(C)(=O)=O)c2)cc1-c1ncc(OC2CNC2)cn1 [Example 636, 4-[5-(azetidin-3-yloxy)pyrimidin-2-yl]-N-(3-chloro-5-methanesulfonamidophenyl)-5-methylthiophene-2-carboxamide] | 1210 | – |
| – | – | > 10000 | 33.9 | – | CCOc1cnc(-c2cc(C(=O)Nc3cc(Cl)cc(NS(=O)(=O)CC)c3)sc2C)nc1 [Example 365] | – | 116 |
| > 10000 | 22 | – | – | – | Cn1cc(C(=O)Nc2cc(Cl)cc(NS(C)(=O)=O)c2)cc1-c1ncc(N2CC(C(F)(F)F)C2)cn1 [Example 493] | 131 | – |
| > 10000 | 65.3 | – | – | – | Cc1sc(C(=O)Nc2cc(Cl)cc(NS(C)(=O)=O)c2)cc1-c1ncc(OC2CCC2)cn1 [Example 452] | 223 | – |
| > 10000 | 42.9 | – | – | – | Cn1cc(C(=O)Nc2cc(Cl)cc(NS(C)(=O)=O)c2)cc1-c1ncc(N2CCC3(C2)CC3(F)F)cn1 (stereo not drawn) [Example 494] | 129 | – |
| 3100 | 18.7 | – | – | – | Cc1sc(C(=O)Nc2cc(Cl)cc(NS(C)(=O)=O)c2)cc1-c1ncc(OC(C)(C)CO)cn1 [Example 678] | 391 | – |
| > 10000 | 116 | – | – | – | CN1CC(Oc2cnc(-c3cc(C(=O)Nc4cc(Cl)cc(NS(C)(=O)=O)c4)cn3CC(F)(F)F)nc2)C1 [Example 613] | 173 | – |
| > 10000 | 4.7 | – | – | – | Cc1sc(C(=O)Nc2cc(Cl)cc(NS(C)(=O)=O)c2)cc1-c1ncc(OC2CN(C)C2)cn1 [Example 609, N-(3-chloro-5-methanesulfonamidophenyl)-5-methyl-4-{5-[(1-methylazetidin-3-yl)oxy]pyrimidin-2-yl}thiophene-2-carboxamide] | 658 | – |

Further lines, the compound ahead of its results:

| SMILES | IC50 (NCI-H747 cells; NCI-H747, NCI-H747) [nM] | EC50 [1, 2] [nM] | IC50 (NCI-H747 cells; NCI-H747, NCI-H747, CRC-MSS) [nM] | EC50 [1, 3] [nM] | EC50 ([1]; HCT-116, circBRIP1, HCT116 cells, cell carries no mark, SyBr or Taqman not indicated) [nM] | IC50 (LS411N cells) [nM] | IC50 (LS411N cells; CRC-MSI-H) [nM] |
| --- | --- | --- | --- | --- | --- | --- | --- |
| Cn1cc(C(=O)Nc2cc(Cl)cc(NS(C)(=O)=O)c2)cc1-c1ncc(N2CC(F)(F)C2)cc1OCc1cnco1 [Example 733] | > 10000 | 88.3 | – | – | – | 206 | – |
| Cc1cc(C(=O)Nc2cc(Cl)cc(NS(C)(=O)=O)c2)cn1-c1ccc(N2CCC3(CC3)C2)cn1 [Example 522] | > 10000 | 109 | – | – | – | 211 | – |
| Cc1sc(C(=O)Nc2cc(Cl)cc(NS(C)(=O)=O)c2)cc1-c1ncc(N2CCCC(F)(F)C2)cc1F [Example 482] | 1140 | 35.6 | – | – | – | 66.8 | – |
| Cc1sc(C(=O)Nc2cc(Cl)cc(NS(C)(=O)=O)c2)cc1-c1ncc(N2CC(F)(F)C2)cc1OC1CCC1 [Example 514] | > 10000 | 45.5 | – | – | – | 149 | – |
| Cn1cc(C(=O)Nc2cc(Cl)cc(NS(C)(=O)=O)c2)cc1-c1ccc(N2CCC(F)(F)C2)cn1 [Example 527] | 5580 | 109 | – | – | – | 65.4 | – |
| Cc1cc(C(=O)Nc2cc(Cl)cc(NS(C)(=O)=O)c2)cn1-c1ccc(N2CC3COCC3C2)cn1 (stereo not drawn) [Example 405] | > 10000 | 26.1 | – | – | – | 116 | – |
| Cn1cc(C(=O)Nc2cc(Cl)cc(NS(C)(=O)=O)c2)cc1-c1ncc(N2CCCC(F)(F)C2)cc1F [Example 483] | 1710 | 61 | – | – | – | 101 | – |
| CS(=O)(=O)Nc1cc(Cl)cc(NC(=O)c2cc(-c3ncc(F)cc3OCc3cncnc3)n(CC(F)(F)F)c2)c1 [Example 735] | > 10000 | 77.2 | – | – | – | 306 | – |
| CCS(=O)(=O)Nc1cc(Cl)cc(NC(=O)c2cc(-c3ncc(N4CC(F)C4)cn3)c(C)s2)c1 [Example 509] | 5890 | 17.7 | – | – | – | 73.1 | – |
| Cn1cc(C(=O)Nc2cc(Cl)cc(NS(C)(=O)=O)c2)cc1-c1c(F)cc(F)cc1F [Example 547] | 5430 | 127 | – | – | – | 173 | – |
| COc1cnc(-c2cc(C(=O)Nc3cc(Cl)cc(NS(C)(=O)=O)c3)sc2C)c(F)c1 [Example 358] | – | – | 6870 | 53.3 | – | – | 129 |
| Cc1cc(C(=O)Nc2cc(Cl)cc(NS(C)(=O)=O)c2)cn1-c1ccc(N2C3CCC2CC3)cn1 [Example 523] | 5950 | 57.2 | – | – | – | 174 | – |
| Cc1sc(C(=O)Nc2cc(Cl)cc(NS(C)(=O)=O)c2)cc1-c1ncc(C2CCN(CC(F)(F)F)CC2)cc1F [Example 618] | 1850 | 45.4 | – | – | – | 132 | – |
| Cn1cc(C(=O)Nc2cc(Cl)cc(NS(C)(=O)=O)c2)cc1-c1ncncc1OCc1cc(F)cc(F)c1 [Example 627] | > 10000 | 37.6 | – | – | – | 29.4 | – |
| Cc1sc(C(=O)Nc2cc(Cl)cc(NS(C)(=O)=O)c2)cc1-c1ncc(F)cc1C#CC(C)(C)O [Example 696] | 7700 | 36.7 | – | – | – | 45.1 | – |
| Cc1cc(C(=O)Nc2cc(Cl)cc(NS(C)(=O)=O)c2)cn1-c1ncc(N2CC(F)(F)C2)cc1F [Example 420] | 3870 | 50.6 | – | – | – | 353 | – |
| Cn1cc(C(=O)Nc2cc(Cl)cc(NS(C)(=O)=O)c2)cc1-c1ncc(N2CC(F)(F)C2)cc1F [Example 599] | 4330 | 37.8 | – | – | – | 149 | – |
| CCS(=O)(=O)Nc1cc(Cl)cc(NC(=O)c2cc(-c3ncc(C)cc3F)n(C)c2)c1 [Example 548] | 6460 | 80.4 | – | – | – | 226 | – |
| CCS(=O)(=O)Nc1cc(Cl)cc(NC(=O)c2cc(-c3ncc(F)cc3OCc3cncnc3)c(C)s2)c1 [Example 623] | > 10000 | 11.2 | – | – | – | 72.3 | – |
| Cc1sc(C(=O)Nc2cc(Cl)cc(NS(C)(=O)=O)c2)cc1-c1ncc(N2CC(F)(F)C2)cc1OC(F)F [Example 536] | 6800 | 49 | – | – | – | 70.4 | – |
| Cn1cc(C(=O)Nc2cc(Cl)cc(NS(C)(=O)=O)c2)cc1-c1ccc(C2CCOCC2)cn1 [Example 704] | 7140 | 25.4 | – | – | – | 56.9 | – |
| Cn1cc(C(=O)Nc2cc(Cl)cc(NS(C)(=O)=O)c2)cc1-c1ccc(N2CC(CS(C)(=O)=O)C2)cn1 [Example 695] | > 10000 | 143 | – | – | – | 2970 | – |
| Cn1cc(C(=O)Nc2cc(Cl)cc(NS(C)(=O)=O)c2)cc1-c1ncc(N2CC(F)C2)cc1F [Example 466] | 4850 | 52.4 | – | – | – | 350 | – |
| Cc1sc(C(=O)Nc2cc(Cl)cc(NS(C)(=O)=O)c2)cc1-c1ncc(N2CCC(F)(F)CC2)cc1F [Example 471] | 8870 | 27.5 | – | – | – | 72.5 | – |
| CCS(=O)(=O)Nc1cc(Cl)cc(NC(=O)c2cc(-c3ccc(N4CC(F)(F)C4)cn3)n(C)c2)c1 [Example 403] | 7410 | 100 | – | – | – | 230 | – |
